From US9303017B2, “2,5-disubstituted-pyridyl nicotinic ligands, and methods of use thereof” (Georgetown University, priority 2011, dated 2016)
Where a name gives a salt, the structure may show the parent alone. Read-outs that look alike come from different tables or passages of the source.

Experiments:
[1] = biological target: α3β4 nAChR (Rattus norvegicus (Rat), UniProt P04757+P12392); assay: [3H]-epibatidine competition binding, α3β4
Description: (§1) In Vitro Binding Affinities for nAChR Subtypes. […] To determine selectivities of these compounds in binding assays among the three predominant nAChR subtypes, α3β4, α4β2 and α7, the ratios of Ki values (α3β4/α4β2 and α7/α4β2) were determined.
(§2) Cell Lines and Cell Culture. The cell lines expressing defined rat nAChR subtypes were established previously by stably transfecting HEK 293 cells with rat nAChR subunit genes. The cell line expressing human α4β2 nAChRs, YXα4β2H1, was established recently. These cell lines were maintained in minimum essential medium (MEM) supplemented with 10% fetal bovine serum, 100 units/mL penicillin G, […] and selective antibiotics at 37° C. with 5% CO2 in a humidified incubator. Fetal bovine serum was provided by Gemini Bio-Products (Woodland, Calif.). Tissue culture medium and antibiotics were obtained from Invitrogen Corporation (Carlsbad, Calif.), unless otherwise stated.
(§3) Briefly, cultured cells at >80% confluence were removed from their flasks (80 cm^2) with a disposable cell scraper and placed in 10 mL of 50 mM Tris.HCl buffer (pH 7.4, 4° C.). The cell suspension was centrifuged at 10,000×g for 5 min and the pellet was collected. The cell pellet was then homogenized in 10 mL buffer with a polytron homogenizer and centrifuged at 36,000 g for 10 min at 4° C. The membrane pellet was resuspended in fresh buffer, and aliquots of the membrane preparation were used for binding assays. […] Bound and free ligands were separated by vacuum filtration through Whatman GF/C filters treated with 0.5% polyethylenimine. The filter-retained radioactivity was measured by liquid scintillation counting. Specific binding was defined as the difference between total binding and nonspecific binding. Data from competition binding assays were analyzed using Prism 5 (GraphPad Software, San Diego, Calif.).
(§4) Pharmacological Properties. We measured the in vitro binding affinities of the ligands for defined receptor subtypes (α2β2, α2β4, α3β2, α3β4, α4β2, α4β4, α6β2, α6β4, and α7) expressed in stably transfected cell lines. […] Rat forebrain homogenates were included to allow comparison between the heterologous and native α4β2 and α7 nAChRs. See Table 1 for binding affinity values (Ki) of the ligands at the three major nAChR subtypes (α3β4. α4β2 and α7).

[2] = biological target: α4β2 nAChR (Rattus norvegicus (Rat), UniProt P09483+P12390); assay: biochemical; format: binding; settings: for Ki Ratio α3β4/α4β2: selectivity for α4β2 over α3β4; for Ki Ratio α7/α4β2: selectivity for α4β2 over α7
Description: as §1, §2, §3, §4

[3] = biological target: α7 nAChR (Rattus norvegicus (Rat), UniProt Q05941); format: binding
Description: as §1, §2, §3, §4

[4] = biological target: human α4β2 nAChRs (Homo sapiens (Human), UniProt P17787+P43681); assay: 86Rb+ efflux assay (activation and desensitization), α4β2; format: cell-based; settings: for EC50: agonist activity; for Emax: read-out: Emax α4β2 nAChRs; for IC50: desensitization
Description: (§5) In Vitro Effects on nAChR Function. […] Their agonist activities were assessed by measuring stimulated ^86Rb^+ efflux from stably transfected cells, either expressing human α4β2 nAChRs or rat α3β4 receptors.
as §2
(§6) ^86Rb^+ Efflux Assay. Functional properties of compounds at nAChRs expressed in the transfected cells were measured using ^86Rb^+ efflux assays as described previously. In brief, cells expressing human α4β2 or rat α3β4 nAChRs were plated into 24-well plates coated with poly-D-lysine. The plated cells were grown at 37° C. for 18 to 24 hour to reach 85-95% confluence. The cells were then incubated in growth medium (0.5 mL/well) containing ^86Rb^+ (2 μCi/mL) for 4 hour at 37° C. The loading mixture was then aspirated, and the cells were washed four times with 1 mL buffer (15 mM HEPES, 140 mM NaCl, 2 mM KCl, 1 mM MgSO4, 1.8 mM CaCl2, 11 mM Glucose, pH 7.4). One mL of buffer with or without compounds to be tested was then added to each well. After incubation for 2 min, the assay buffer was collected for measurements of ^86Rb^+ released from the cells. Cells were then lysed by adding 1 mL of 100 mM NaOH to each well, and the lysate was collected for determination of the amount of ^86Rb^+ that was in the cells at the end of the efflux assay. Radioactivity of assay samples and lysates was measured by liquid scintillation counting. Total loading (cpm) was calculated as the sum of the assay sample and the lysate of each well. The amount of ^86Rb^+ efflux was expressed as a percentage of ^86Rb^+ loaded. […] For obtaining EC50 and Emax values, stimulation curves were constructed in which 8 different concentrations of a ligand were included in the assay. […] EC50, Emax and IC50(10′) values were determined by nonlinear least-squares regression analyses (GraphPad, San Diego, Calif.).
(§7) The functional properties of the ligands were determined by ^86Rb^+ efflux assays in cells expressing α3β4 and α4β2 nAChR subtypes. The functional activity of each ligand was measured for its agonism, antagonism and desensitization ability. Agonist activity for each of the ligands was tested at eight different concentrations. […] The full concentration-effect curves generated potency (EC50) and efficacy (Emax) of each ligand. […] We tested each ligand for antagonist activity at eight concentrations. The potency (IC50(0′)) of each ligand as an antagonist was derived from the full concentration-effect curves.

[5] = biological target: rat α3β4 nAChRs (Rattus norvegicus (Rat), UniProt P04757+P12392); assay: 86Rb+ efflux assay (activation and desensitization), α3β4; format: cell-based; settings: for Emax: read-out: Emax α3β4 nAChRs
Description: as §5, §2, §6, §7

[6] = tested on: ferrets; assay: Emesis studies in ferrets; format: in vivo, ferret (Mustela putorius furo); settings: 0.5 mg/kg s.c.
Description: Emetic Effects of Compound (S)-15 (YL-1-127) in Ferrets. Effects of (S)-15 in causing nausea and emesis were assessed in a ferret model. For comparison, varenicline was also tested. […] In general, all animals remained alert and active with periods of inactivity that mirrored their baseline behavior within the 1 hr observation period.
In one animal, this behavior was accompanied by oral stereotypy (licking), whereas in two animals it was interspersed by episodes of backward walking. On the average, these behaviors manifested around ˜2.20 min. […] Occasionally, when animals tried to ambulate they would immediately cease their movement after each attempt. This would be followed by a momentary increase in breathing, giving the impression that the animal was in distress.
General Procedures for Emesis Studies in Ferrets. Studies were undertaken in male ferrets (Mustela putorius furo) weighing 0.9-1.5 kg (Marshall Farms, N.Y.). They were housed in controlled conditions of room temperature (22° C.) and light (12:12 h light-dark cycle) with free access to food and water. Prior to each experiment, food was withheld overnight, whereas water was provided ad libitum.
Emetic testing consisted of placing animals individually in a polycarbonate enclosure. Following a 30 min acclimation period, each animal randomly received a subcutaneus injection of varencline or compound (S)-15 (YL-1-127) in the subscapular region. A 60 min observation and video recording followed the drug administration. […] All drugs were dissolved in sterile saline.
Video analysis of the incidence of emesis, stereotypical behaviors (such as licking, mouth-clawing, backward walking, gagging, and burying of the head in cage) and GI side effects (diarrhea) was done off-line. Stereotypical behaviors are thought to be reflective of a subjective sensation of nausea. The emetic index of a drug was calculated as the […] of animals displaying emesis (one or more times in 60 min) divided by the total number of animals tested. An emetic episode was defined as the forceful oral expulsion of liquid or solid upper gastrointestinal contents that is temporally separated from another by at least 30 s.
The Nausea Index for the stereotypical behaviors was derived from the mean±SEM number of nausea behaviors observed among all animals in a given treatment group. Significance was determined at p<0.05.

[7] = Table 3 (Example 4), read-out: Ki α4β2
[8] = Table 1, mean of 3 to 5 measurements
[9] = Table 1, mean of 3 to 5 measurements, read-out: Ki α4β2
[10] = ND = no significant stimulated efflux detected
[11] = agonist efficacy normalized to Emax of nicotine, ND = no significant stimulated efflux detected
[12] = 10 min pre-treatment, Table 3 (Example 4), read-out: IC50(10′) α4β2
[13] = 10 min pre-incubation before 100 μM nicotine, Table 2, read-out: IC50(10′) α4β2 nAChRs
[14] = read-out: IC50(10′) α3β4 nAChRs

| SMILES | Ki ([1]; Table 3 (Example 4)) | Ki [2, 7] | Ki Ratio α3β4/α4β2 [2] | Ki Ratio α7/α4β2 [2] | Ki [1, 8] | Ki [2, 9] | Ki ([3]; Table 3 (Example 4)) | EC50 [4, 10] | Emax [4, 11] | IC50 [4, 12] | IC50 [4, 13] | IC50 [5, 14] | further results |
| --- | --- | --- | --- | --- | --- | --- | --- | --- | --- | --- | --- | --- | --- |
| CCCCC#Cc1cnc(C)c(OC[C@H]2CCCN2)c1 [(R)-16, (R)-5-(hex-1-ynyl)-2-methyl-3-(pyrrolidin-2-ylmethoxy) pyridine] | 22 µM | 9900 nM | 22 | 11 | – | – | – | – | – | – | – | – | Ki [3, 8]: 110 µM |
| Cc1ncc(C#CC2CC2)cc1OC[C@@H]1CCN1 [(S)-27, (S)-3-(azetidin-2-ylmethoxy)-5-(cyclopropylethynyl)-2-methylpyridine] | 150 µM | – | 16,000 | 16,000 | 150 µM | 9.6 nM | 150 µM | 0.16 µM | < 20% | 0.011 µM | 0.11 µM | > 10 µM | IC50 ([5]; read-out: IC50(10′) α3β4): 36 µM |
| CCCCC#Cc1cnc(C)c(OC[C@H]2CCN2)c1 [(R)-15, (R)-3-(azetidin-2-ylmethoxy)-5-(hex-1-ynyl)-2-methylpyridine] | – | – | 270 | 220 | 200 µM | 740 nM | 120 µM | – | – | – | – | – | Ki [3, 8]: 160 µM |
| CCCCC#Cc1cnc(C(F)(F)F)c(OC[C@@H]2CCN2)c1 [compound 32, (S)-3-(azetidin-2-ylmethoxy)-5-(hex-1-ynyl)-2-(trifluoromethyl)pyridine hydrochloride] | – | – | – | – | > 100 µM | – | – | – | – | – | – | – | Ki [2]: > 100000 nM |
| CN1CCC[C@H]1c1cccnc1 [(—)-Nicotine, (−)-nicotine, reference compound] | – | – | – | – | – | – | – | – | – | – | – | – | Emax [4]: 100%; Emax α3β4 nAChRs [5]: full agonist activities |
| CCCCC#Cc1cnc(C)c(OC[C@@H]2CCCN2)c1 [(S)-16, (S)-5-(hex-1-ynyl)-2-methyl-3-(pyrrolidin-2-ylmethoxy)pyridine] | 94 µM | 73 nM | – | – | – | – | 81 µM | – | – | – | 1.6 µM | 6.4 µM | Emax α4β2 nAChRs [4, 11]: didn't show detectable agonist activity |
| OCCCCC#Cc1cncc(OC[C@@H]2CCN2)c1 [Sazetidine-A, reference compound] | 1.9 µM | 0.062 nM | 31,000 | 11,000 | – | – | 1.6 µM | 0.024 µM | 40% | 0.0075 µM | 0.012 µM | > 10 µM | EC50 ([5]; agonist activity, ND = no significant stimulated efflux detected): 24 µM; IC50 ([5]; desensitization, 10 min pre-treatment, Table 3 (Example 4), read-out: IC50(10′) α3β4): > 10 µM; Emax [5]: 17% |
| c1cnc2cc3c(cc2n1)[C@@H]1CNC[C@H]3C1 [Varenicline] | – | – | – | – | – | – | – | – | – | – | – | – | Emax [5]: 90%; gagging (retching), mean # of episodes [6]: 2.80 ± 1.63; time post-injection at which locomotor behavior was noticeably reduced [6]: ~1.05 min; emetic episodes ([6]; 1 hr observation): no emetic episodes were observed; time at which nausea behaviors manifested ([6]; average): ~2.20 min; animals with drug induced nausea (gagging) ([6]; animals affected/tested): 4/5 |
| Cc1ncc(C#CCCCCO)cc1OC[C@@H]1CCN1 [(S)-17, (S)-6-(5-(azetidin-2-ylmethoxy)-6-methylpyridin-3-yl)hex-5-yn-1-ol] | 250 µM | – | 70,000 | 40,000 | – | 4.3 nM | 170 µM | 0.063 µM | < 20% | 0.042 µM | 0.051 µM | > 10 µM | reduction in binding affinity for α4β2 nAChRs ([2]; relative to Sazetidine-A): 70 fold; IC50 ([5]; read-out: IC50(10′) α3β4): 50 µM |
